Measured values reported in US20240261253A1, “DAUR[…] AND IT'S USE IN MEDICINE” (Phytotherapeutix Ltd., priority 2021, published 2024).
Converted amounts (≈) assume the structure as drawn. Like-named read-outs stand apart in the source and are kept apart here.

Tests used:
[1] = cytotoxicity (cell viability) in H292 cells; assay type: cell-based; conditions: human, read-out: CC50 (50% cell viability)
Method: (§1) A dilution series of each test compound (8-point, 10-fold dose titration) was added prophylactically for one hour, to cells. Cells were infected with virus for one hour, at a single concentration (100×TCID50 (Median Tissue Culture Infectious Dose). Additional media was added to the wells, with equivalent concentrations of compound added in for the duration of the study. Vehicle and positive control wells were set up to control for any influence of the compounds alone on cell viability. Cells were visually inspected for the appearance of any cytopathic effects (CPE). A cell viability assay was performed once CPE was complete.
(§2) • EC50: The concentration which results in 50% viral inhibition, following the addition of compounds. • CC50: The concentration which results in 50% cell viability, following the addition of compounds.
(§3) • 1. Cells permissible to infection, indicated in the Conditions Table, were grown and seeded into 96-well plates to a confluency of 80-90%. • 2. The test compounds were serially diluted 10-fold into 8 concentrations in total. The serial dilution was added to the cells for 1 hour prior to infection with each virus. Positive control compounds were included using the same treatment regimen. • 3. After pre-treatment, each virus was added to the cells for 1 h at 100×TCID50. A mock infection of blank media was added to the uninfected controls. • 4. After infection, the virus/media was removed and an overlay medium was added, with equivalent concentrations of the test compounds added in. • 5. […] A cell viability assay was performed on all conditions, with cells receiving the test treatment compared to the vehicle treated and uninfected controls.

H292 cells = assay: cytotoxicity (cell viability) in H292 cells; assay type: cell-based; conditions: 5 days
Method: as §1, §2, §3

Human Coronavirus OC43 = assay: inhibition of HCoV OC43 infection in H292 cells (CPE/cell viability assay); assay type: cell-based, Human Coronavirus OC43 (Beta); conditions: for efficacy against HCoV OC43: H292 cells
Method: as §1
(§4) Inhibition was calculated as follows: […]
(§5) where: • A: mean optical density of test, • B: mean optical density of virus controls, • C: mean optical density of cell controls. • Negative values occur when A<B, due either to natural variation or compound toxicity.
as §2, §3

[2] = cytotoxicity (cell viability) in 16HBE cells; assay type: cell-based; conditions: human, read-out: CC50 (50% cell viability)
Method: as §1, §2, §3

16HBE cells = assay: cytotoxicity (cell viability) in 16HBE cells; assay type: cell-based; conditions: 5 days
Method: as §1, §2, §3

uninfected H9 cells = conditions: cited from earlier work
HIV = conditions: cited from earlier work
[3] = 5 mg/kg i.p., rodents; cited from earlier work
Human Coronavirus 229E = assay: inhibition of HCoV 229E infection in 16HBE cells (CPE/cell viability assay); assay type: cell-based, Human Coronavirus 229E (Alpha)
Method: as §1, §4, §5, §2
• 1. Cells permissible to infection, indicated in the Conditions Table, were grown and seeded into 96-well plates to a confluency of 80-90%. • 2. The test compounds were serially diluted 10-fold into 8 concentrations in total. […]

With `CC(C)=CCC/C(C)=C/CCC1(C)C=Cc2c(cc(C)c(C(=O)O)c2O)O1` (racemic) [1:1 mixture of (+)-DCA with (−)-DCA, (E)-2-(4,8-dimethylnona-3,7-dien-1-yl)-5-hydroxy-2,7-dimethyl-2H-chromene-6-carboxylic acid] the CC50 at 5 days [1] was 5.9 µg/mL, the “CC50 (50% cell viability)” value (H292 cells) was 5.938 µg/mL and the “efficacy against HCoV OC43” value (Human Coronavirus OC43; listed as 1:1 mix of both) was “Efficacy was seen”. For the same compound, the CC50 at 5 days [2] was 8.2 µg/mL and the “CC50 (50% cell viability)” value (16HBE cells) was 8.225 µg/mL.
For `CC(C)=CCC/C(C)=C/CCC1(C)C=Cc2c(cc(C)c(C(=O)O)c2O)O1` (stereo in doubt) [(−)-DCA, (−)-(2S)-2-[(3E)-4,8-dimethylnona-3,7-dienyl]-5-hydroxy-2,7-dimethylchromene-6-carboxylic acid], the CC50 at 5 days [1] was 15.1 µg/mL (≈ 40.8 µM), the EC50 (Human Coronavirus OC43; Betacoronavirus 1, OC43, NCI-H292, 120 h, read-out: EC50 (50% viral inhibition), HCoV OC43, H292 cells, 5 days) was 4.39 µg/mL and the “efficacy against HCoV OC43” value (Human Coronavirus OC43) was “Efficacy was seen”. The “EC50 (50% viral inhibition)” value (Human Coronavirus OC43; HCoV OC43, H292 cells, 5 days) was 4.382 µg/mL (≈ 11.8 µM) and the CC50 at 5 days [2] was 35.7 µg/mL (≈ 96.4 µM).
For `CC(C)=CCC/C(C)=C/CC[C@@]1(C)C=Cc2c(cc(C)c(C(=O)O)c2O)O1` [(+)-DCA, (S,E)-2-(4,8-dimethylnona-3,7-dien-1-yl)-5-hydroxy-2,7-dimethyl-2H-chromene-6-carboxylic acid], the CC50 at 5 days [1] is listed as 9.27 µg/mL (≈ 25 µM), the “inhibition of uninfected H9 growth EC50” value (uninfected H9 cells) is listed as 21.1 µg/mL and the “efficacy against HCoV OC43” value (Human Coronavirus OC43) is listed as “Efficacy was seen”. For the same compound, the CC50 at 5 days [2] was 20.7 µg/mL (≈ 55.9 µM) and the “anti-HIV activity EC50” value (HIV; acutely infected H9 cells) was 0.00567 µg/mL.
In the case of `CCCCCc1cc2c(c(O)c1C(=O)O)C=CC(C)(CCC=C(C)C)O2` (centres unmarked) [CBCA, 5-hydroxy-2-methyl-2-(4-methylpent-3-enyl)-7-pentylchromene-6-carboxylic acid], the “plasma Cmax” value [3] is listed as “approx. 4 μg/mL” and the side effects [3] is listed as “without any major side effects”.
Compound `CCC(CC)COC(=O)[C@H](C)N[P@](=O)(OC[C@H]1O[C@@](C#N)(c2ccc3c(N)ncnn23)[C@H](O)[C@@H]1O)Oc1ccccc1` [Remdesivir, reference compound] has an EC50 (Human Coronavirus OC43; Betacoronavirus 1, OC43, NCI-H292, 120 h, HCoV OC43, H292 cells, 5 days, read-out: EC50 (50% viral inhibition)) of 0.029 µg/mL, an EC50 (Human Coronavirus OC43; Betacoronavirus 1, OC43, NCI-H292, HCoV OC43, read-out: EC50) of 10 to 100 nM and an EC50 (Human Coronavirus 229E; 16HBE, read-out: EC50) of 10 to 100 nM. The EC50 (Human Coronavirus 229E; 120 h, 16HBE cells, 5 days, read-out: EC50 (50% viral inhibition)) was 0.023 µg/mL.
In the case of `CC(C)=CCC[C@@]1(C)[C@@H]2CC[C@]3(C)Oc4cc(C)c(C(=O)O)c(O)c4[C@H]1[C@H]23` [Rhododaurichromanic acid A], the “anti-HIV activity EC50” value (HIV; in vitro) is listed as 0.37 µg/mL.
For `CC(C)=CCC[C@]1(C)[C@@H]2CC[C@]3(C)Oc4cc(C)c(C(=O)O)c(O)c4[C@H]1[C@H]23` [Rhododaurichromanic acid B], the anti-HIV activity (HIV; in vitro) is given as “no anti-HIV activity”.
